Assay results reported in patent publication US20080181928A1, “COATINGS FOR IMPLANTABLE MEDICAL DEVICES FOR LIPOSOME DELIVERY” (MIV Therapeutics, Inc., priority 2006, published 2008).

Legend:
[1] = tested on: THP-1 (Human Monocytic Leukemia) cell culture; test: THP-1 cell growth inhibition by ZA released from lipid bilayer stent coating (Example 16); type: cell-based; settings: THP-1, 96 h, 4 days
Protocol: Hydroxyapatite coated stents were further coated with the lipid film in a manner similar to that described in Examples 12 and 13, except that the film contained 2 μg of zoledronic acid (ZA). The stents were added to THP-1 (Human Monocytic Leukemia) cell culture (5×10^5 cells/mL) and compared to ZA alone added at concentration of 5 and 1 μg/mL. After 4 days, the cells in each culture were harvested and counted.

[2] = tested on: THP-1 cells; test: THP-1 cell growth in presence of ZA lipid coated stents or molecular ZA (Examples 6 and 7); type: cell-based; settings: Homo sapiens, THP-1, 96 h, 4 days of culture
Protocol: To monitor cell growth in the presence of liposomes containing ZA, 5×10^5 THP-1 cells are plated into 24—well cluster plates (Corning Inc.) in complete RPMI-1640 medium at 1 mL volume. About 3-4 hours later, the lipid coated stents of Example 5 are added into the THP-1 cell culture (5×10^5 cells/mL). The cells in the presence of medium alone or treated with empty liposomes (no drug) served as a control. ZA in molecular form was added for comparison at a concentration of 5 and 1 μg/mL. After 4 days of culture, the cells in each culture were harvested and counted using a hemocytometer; viability was evaluated by trypan blue exclusion method.
The two sets of samples were placed in cell cultures containing THP-1 macrophage type cells. HAp coated stents impregnated with molecular ZA (configuration B) are placed in 2 ml PBS dissolution media and rotated at a speed of 20 rpm at 37.2° C. Samples are taken at various time intervals and analyzed using HPLC.

O=P(O)(O)C(O)(Cn1ccnc1)P(=O)(O)O [ZA, zoledronic acid]
inhibition at 1 µg/mL ([1]; 1 μg/mL): 0.6%
inhibition at 5 µg/mL ([1]; 5 μg/mL): 20%
inhibition at 1 µg/mL ([2]; 1 μg/mL): 0.6%
inhibition at 5 µg/mL ([2]; 5 μg/mL): 20%
